The values that follow come from PMC5471521, “Novel selective β1-adrenoceptor antagonists for concomitant cardiovascular and respiratory disease” (The FASEB Journal, 2017).

For one series, the target named is human albumin (Homo sapiens, UniProt P02768). Put plainly: Plasma protein binding estimated from retention on human albumin columns. In kind it is in vitro ADME. As to conditions: human albumin chromatography column, chromatographic estimate, read-out: Plasma protein binding PPB (converted).
The nature of series [1]: Metabolic stability, rat hepatocytes. In kind it is in vitro ADME. As to the method: (§1) NDD-713.HCl and -825.HCl were incubated (0.02, 0.1, or 0.5 μM at 37°C, 120 min) with human (XenoTech, Kansas City, KS, USA) or rat liver microsomes (BD Biosciences, Brea, CA, USA) at 0.4 mg/ml protein concentration. Metabolic reaction was initiated by addition of NADPH-regenerating system or NADPH-regenerating system with uridine diphosphate glucuronic acid. Samples were quenched at time points by acetonitrile addition. Control samples, which contained neither NADPH, nor uridine diphosphate glucuronic acid, were monitored for degradation. Compound concentrations were determined by ultraperformance LC-MS (UPLC-MS) relative to calibration standards that were prepared in quenched liver microsomes and fitted to exponential decay functions to determine first-order rate constants (k) for substrate depletion. These were used to calculate in vitro intrinsic clearance (CLint) values: CLint = k/microsomal protein content (0.4 mg protein/ml). Metabolic stability assays that used rat liver cytosol (BD Biosciences), human cryopreserved hepatocytes, or rat hepatocytes were carried out similarly. Average viable cell concentrations were determined by Trypan Blue exclusion methods (in the absence of test compounds). Studies were carried out by CDCO.

A further series deals with T1, human β2-AR (Homo sapiens, UniProt P07550).
T1 construct: expressed in transfected cells
Put plainly: 3H-CGP12177 whole-cell binding in CHO-β2 cells. As to conditions: mean ± SEM, cells marked ^a are apparent log Kd (specific binding not fully inhibited).

Series [2] deals with T2, human β1-AR (Homo sapiens, UniProt P08588).
T2 construct: expressed in transfected cells
The series is described as follows: Duration of ligand binding (washout, 3H-CGP12177 whole-cell binding in CHO-β1 cells). The settings on record: greater shift = shorter duration of binding; mean ± SEM. As for the experimental part: A method that involved ligand washout was used as described ([44]). Cells were incubated with either competing ligand and ^3H-CGP12177 for 2 h (control plate), or competing ligand alone for 2 h (duration plate). After 2 h, the control plate was processed while the duration plate was washed, and ^3H-CGP12177 alone was added to wells and incubated for a second 2 h before processing. […] Relative measures of ligand duration of binding are indicated by the degree of rightward shift of displacement curves ([44]).

For series [3], the target named is T2, human β1-AR. The series is described as follows: Antagonism of cimaterol-induced 3H-cAMP accumulation in CHO-β1 cells. As to conditions: for Schild slope: CHO-β1 cells, 3 antagonist concentrations, 1 = competitive antagonism; for Kd: Gaddum equation, cimaterol agonist, mean ± SEM, read-out: Log Kd,β1 (converted); for SI1b (in vitro inhibition of functional response) = Kd,β2/Kd,β1: Kd values from antagonism of cimaterol-induced 3H-cAMP accumulation, Table 2; for β1 vs. β2 selectivity Kd,β2/Kd,β1: from antagonism of cimaterol-induced 3H-cAMP accumulation. In kind it is cell-based. As for the experimental part: Confluent cells were examined (24-well plates, 5 h incubation at 37°C) as described in Baker ([45]). Antagonist Kd values were calculated from a rightward shift of the agonist concentration response curve by using the Gaddum equation as previously described ([46]).

The test system of another series is β1-AR vs. β2-AR. The series is described as follows: Calculation of selectivity indices (receptor occupancy, PK-pharmacodynamic ternary complex model). The settings on record: human, exercise HR vs FEV1, ternary complex model.
The next series deals with T3, CYP3A4 (Homo sapiens, UniProt P08684).
T3 construct: purchased BD Biosciences
The series is described as follows: P450 in vitro clearance, recombinant Supersomes. In kind it is in vitro ADME. As to conditions: 2 μM, hydrochloride salts used. As to the method: NDD-713.HCl and -825.HCl (2 μM) and cytochrome P450 (P450) reference substrates (see Supplemental Data for full details) were incubated (37°C) with selected recombinant human P450 isoforms (CYP1A2, CYP2A6, CYP2B6, CYP2C8, CYP2C9, CYP2C19, CYP2D6 CYP2E1, and CYP3A4) in heterologously expressed P450 Supersomes (BD Biosciences) that were suspended in […] Tris-HCl buffer (pH 7.4; for CYP2C9) or 100 mM phosphate buffer (pH 7.4; for the other isoforms) at final P450 concentrations of 85 pmol/ml. Reactions were initiated by additions of an NADPH-regenerating system and quenched at time points over 60 min (reference probes) or 120 min (test compounds) by acetonitrile. Quenched samples were centrifuged and supernatants were collected. NDD-713, -825, and probe metabolites were determined by UPLC-MS relative to calibration standards prepared in quenched matrix, and %substrate that remained was calculated relative to the initial sample concentration. The %substrate that remained vs. time was fitted to exponential decay functions to determine the pseudo first-order rate constant (k/min) for substrate depletion. These were normalized to P450 concentrations (pmol/ml) to obtain in vitro CLint values: CLint, in vitro (μl/min/pmol P450) = [k (min^−1)/P450 concentration […]] × 1000. Studies were carried out by CDCO.

A short description of series [4]: Metabolic stability, human liver microsomes. In kind it is in vitro ADME. As to conditions: in the presence of NAD+, NADPH, or in the absence of cofactors. As for the experimental part: as §1
For orientation: Microsomes from liver hold many membrane-bound enzymes, among them those of drug oxidation.

Series [5] addresses T2, human β1-AR. Put plainly: Direct measurement of ERK1/2 MAPK phosphorylation in CHO-β1 cells. In kind it is cell-based. The settings on record: 3 and 10 μM, 5- and 10-min incubations. As for the experimental part: MAPK stimulation was examined by using the AlphaScreen Surefire ERK1/2 T202/Y204 assay kit from TGR Biosciences (PerkinElmer, Waltham, MA, USA), which gives a direct quantitative readout of ERK1/2 (p42/44) MAPK phosphorylation. Confluent cells (half-well 96-well plates) were serum starved for 24 h, then the assay was performed per manufacturer instructions (5- and 10-min incubations at 37°C: ligand concentrations of 3 and 10 μM). Phorbol 12,13-dibutyrate (1 μM) was used as a positive control.

Series [6] deals with T2, human β1-AR. Put plainly: 3H-CGP12177 whole-cell binding in CHO-β1 cells. The settings on record: for Kd: CHO-β1 cells, mean ± SEM, read-out: Human β1-AR Log Kd (converted); for SI1a (in vitro binding) = Kd,β2/Kd,β1: Kd values from 3H-CGP12177 whole-cell binding, Table 1.
A further series has as its target hERG potassium channel (Homo sapiens, UniProt Q12809). The series is described as follows: hERG 3H-astemizole radioligand binding. The settings on record: 10 µM; concentrations >3000-fold β1-AR affinity. Background: hERG is a cardiac potassium channel; its block is linked to QT prolongation.
Series [7] can be described thus: Aqueous solubility by nephelometry. In kind it is physicochemical. The settings on record: kinetic from dmso stock. As for the experimental part:
NDD-713.HCl and -825.HCl were added to either aqueous phosphate buffer (pH 6.5) or 0.01 M aqueous HCl (pH ∼2) at final DMSO concentrations of 1%. Samples were analyzed by nephelometry to determine solubility ranges ([48]). Studies were carried out by the Centre for Drug Candidate Optimisation (CDCO; Monash University, Melbourne, VIC, Australia).

Setting [8] is: 0.01 M aqueous HCl, simulated gastric fluid, pH 2.0, hydrochloride salts used, read-out: Aqueous solubility Saq at pH 2.0.
[9] abbreviates: aqueous phosphate buffer, aqueous buffer, pH 6.5, hydrochloride salts used, read-out: Aqueous solubility Saq at pH 6.5.

Like-named read-outs stand apart in the source and are kept apart here. Some results are limits rather than exact numbers.

Broadly, the microsomal CLint is the rate of metabolic loss divided by the concentration. As usually defined, the solubility is the concentration that dissolves in the medium under given conditions. The term hepatocyte CLint denotes the capacity of the preparation to metabolise the compound, expressed as a volume cleared per time.

T2 sequence (P08588 whole entry): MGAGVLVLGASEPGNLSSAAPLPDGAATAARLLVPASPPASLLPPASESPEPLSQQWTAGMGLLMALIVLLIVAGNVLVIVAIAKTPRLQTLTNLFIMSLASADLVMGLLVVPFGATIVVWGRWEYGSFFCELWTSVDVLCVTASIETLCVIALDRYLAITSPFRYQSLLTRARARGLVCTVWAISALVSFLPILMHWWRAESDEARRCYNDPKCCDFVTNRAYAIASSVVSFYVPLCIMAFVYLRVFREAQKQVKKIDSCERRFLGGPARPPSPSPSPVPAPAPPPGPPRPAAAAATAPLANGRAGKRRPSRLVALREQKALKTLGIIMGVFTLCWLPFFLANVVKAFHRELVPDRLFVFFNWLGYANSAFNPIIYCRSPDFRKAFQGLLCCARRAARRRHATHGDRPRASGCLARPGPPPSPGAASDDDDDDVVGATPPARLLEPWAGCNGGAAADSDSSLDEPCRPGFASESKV
T1 sequence (P07550 whole entry): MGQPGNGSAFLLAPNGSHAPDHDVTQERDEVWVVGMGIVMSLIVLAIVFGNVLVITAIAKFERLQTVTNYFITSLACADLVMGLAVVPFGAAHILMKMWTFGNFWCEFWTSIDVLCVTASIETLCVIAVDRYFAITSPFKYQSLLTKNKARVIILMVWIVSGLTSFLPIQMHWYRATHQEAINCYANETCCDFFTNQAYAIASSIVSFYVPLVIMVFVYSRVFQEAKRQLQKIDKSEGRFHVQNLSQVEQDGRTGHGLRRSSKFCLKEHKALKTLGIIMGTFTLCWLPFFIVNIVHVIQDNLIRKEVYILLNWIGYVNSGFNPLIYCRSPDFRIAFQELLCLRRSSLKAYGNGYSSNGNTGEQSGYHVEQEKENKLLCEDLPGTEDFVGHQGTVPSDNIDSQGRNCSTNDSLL
T3 sequence (P08684 whole entry): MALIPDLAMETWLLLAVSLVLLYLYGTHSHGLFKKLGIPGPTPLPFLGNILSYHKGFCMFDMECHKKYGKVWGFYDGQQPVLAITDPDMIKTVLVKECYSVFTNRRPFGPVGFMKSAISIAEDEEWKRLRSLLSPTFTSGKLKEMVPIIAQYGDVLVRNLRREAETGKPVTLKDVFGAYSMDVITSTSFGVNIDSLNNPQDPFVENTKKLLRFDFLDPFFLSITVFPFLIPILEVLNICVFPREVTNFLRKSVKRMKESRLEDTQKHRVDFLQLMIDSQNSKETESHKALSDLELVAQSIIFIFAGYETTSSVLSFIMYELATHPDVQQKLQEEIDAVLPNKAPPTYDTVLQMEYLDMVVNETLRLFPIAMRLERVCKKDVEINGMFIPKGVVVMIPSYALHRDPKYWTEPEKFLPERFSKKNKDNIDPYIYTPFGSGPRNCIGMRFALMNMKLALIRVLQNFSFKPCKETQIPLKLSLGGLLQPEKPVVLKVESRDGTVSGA
Sequence of human albumin (P02768 25-609): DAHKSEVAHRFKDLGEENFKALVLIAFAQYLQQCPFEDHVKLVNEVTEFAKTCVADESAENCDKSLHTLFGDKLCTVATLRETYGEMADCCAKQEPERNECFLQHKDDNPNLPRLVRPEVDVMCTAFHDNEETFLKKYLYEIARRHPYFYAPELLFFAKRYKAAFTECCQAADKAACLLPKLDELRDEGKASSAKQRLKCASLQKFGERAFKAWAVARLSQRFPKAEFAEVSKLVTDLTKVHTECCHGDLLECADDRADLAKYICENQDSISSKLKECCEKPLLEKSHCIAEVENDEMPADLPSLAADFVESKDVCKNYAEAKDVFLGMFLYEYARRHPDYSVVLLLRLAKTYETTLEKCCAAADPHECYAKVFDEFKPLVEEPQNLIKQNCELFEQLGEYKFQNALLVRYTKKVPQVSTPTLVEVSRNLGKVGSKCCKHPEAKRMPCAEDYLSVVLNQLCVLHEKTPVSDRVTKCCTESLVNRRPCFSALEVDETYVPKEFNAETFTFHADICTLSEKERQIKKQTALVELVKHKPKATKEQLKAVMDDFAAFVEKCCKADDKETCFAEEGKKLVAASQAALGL
Sequence of hERG potassium channel (Q12809 whole entry): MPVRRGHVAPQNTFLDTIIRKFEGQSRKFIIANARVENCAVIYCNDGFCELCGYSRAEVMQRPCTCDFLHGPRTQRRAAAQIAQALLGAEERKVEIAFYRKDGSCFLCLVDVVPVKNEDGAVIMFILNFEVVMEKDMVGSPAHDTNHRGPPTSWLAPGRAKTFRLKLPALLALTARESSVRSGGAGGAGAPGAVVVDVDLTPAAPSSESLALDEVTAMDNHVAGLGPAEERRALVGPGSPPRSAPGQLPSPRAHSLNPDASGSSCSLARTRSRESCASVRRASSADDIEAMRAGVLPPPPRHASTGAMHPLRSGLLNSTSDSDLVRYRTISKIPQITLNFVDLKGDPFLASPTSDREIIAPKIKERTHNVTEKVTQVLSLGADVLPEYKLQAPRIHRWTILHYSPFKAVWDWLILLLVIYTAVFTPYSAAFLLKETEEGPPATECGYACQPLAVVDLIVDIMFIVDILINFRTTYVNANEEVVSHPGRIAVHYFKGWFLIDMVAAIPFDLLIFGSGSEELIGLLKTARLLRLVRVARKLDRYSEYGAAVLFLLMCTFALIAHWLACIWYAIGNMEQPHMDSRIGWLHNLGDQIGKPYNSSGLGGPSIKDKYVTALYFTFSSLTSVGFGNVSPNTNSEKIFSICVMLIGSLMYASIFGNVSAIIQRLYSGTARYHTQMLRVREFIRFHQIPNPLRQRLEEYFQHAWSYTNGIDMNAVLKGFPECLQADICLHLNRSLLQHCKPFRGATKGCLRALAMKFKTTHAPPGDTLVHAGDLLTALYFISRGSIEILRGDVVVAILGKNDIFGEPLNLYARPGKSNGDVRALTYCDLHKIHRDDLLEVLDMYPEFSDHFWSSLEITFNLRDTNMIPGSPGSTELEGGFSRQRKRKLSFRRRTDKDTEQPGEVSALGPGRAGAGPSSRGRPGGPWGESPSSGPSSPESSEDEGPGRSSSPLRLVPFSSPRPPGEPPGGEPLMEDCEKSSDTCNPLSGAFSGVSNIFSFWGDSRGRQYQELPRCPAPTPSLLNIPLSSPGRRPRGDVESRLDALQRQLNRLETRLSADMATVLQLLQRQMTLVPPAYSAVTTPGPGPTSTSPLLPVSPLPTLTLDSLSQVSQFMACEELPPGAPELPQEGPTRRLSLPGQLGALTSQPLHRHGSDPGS

Take `NC(=O)c1ccc(OCCNC[C@H](O)COc2ccc3c(c2)OC[C@@H](COCC2CC2)O3)cc1` [NDD-713]: on human albumin, the fraction unbound is 0.365. The CLint rat hepatocytes result in series [1] is listed as “minimal”. Besides, on human β2-AR, the Kd is 8910 nM. Moreover, on human β1-AR [2], the “Log shift (rightward shift of washout curve vs control)” value is 1.75 ± 0.08. On human β1-AR [3], the Schild slope worked out at 1.06 ± 0.03, the Kd is 3.02 nM, the “SI1b (in vitro inhibition of functional response) = Kd,β2/Kd,β1” value is reported as 1202 and the “β1 vs. β2 selectivity Kd,β2/Kd,β1” value is recorded as 1202. Further, the “SI3 (in vivo pharmacologic response) = Eβ1/Eβ2” value in the series with β1-AR vs. β2-AR was 67. Moreover, the “P450 in vitro clearance CLint, CYP3A4” value on CYP3A4 turned out to be 0.07 μl/min/pmol P450. Besides, in series [4], the intrinsic clearance (microsomal CLint) is < 0.16 µL/min/mg. Moreover, the “Agonist response by directly measuring ERK1/2 MAPK” value at human β1-AR [5] is given as “did not stimulate any agonist response”. Besides, at human β1-AR [6], the Kd is 15.1 nM and the “SI1a (in vitro binding) = Kd,β2/Kd,β1” value turned out to be 589. Moreover, at human β1-AR [6] (from 3H-CGP12177 whole-cell binding), the “Human β1 vs. β2 selectivity Kd,β2/Kd,β1” value was found to be 589. Also, the “Affinity for the hERG channel” value at hERG potassium channel is given as “no affinity for the hERG channel”. Further, the solubility in series [7] (setting [8]) was > 100 µg/mL. Moreover, the solubility in [7] (setting [9]) is 25 to 50 µg/mL.

In the case of `O=C1NCc2cc(OCCNC[C@H](O)COc3ccc4c(c3)OC[C@@H](COCC3CC3)O4)ccc21` [NDD-825], the fraction unbound on human albumin was 0.265. The compound further displayed a hepatocyte CLint in series [1] (hepatocytes) of 5 µL/min/1e6 cells. Moreover, on human β2-AR, the Kd was 5370 nM. In addition, the “Log shift (rightward shift of washout curve vs control)” value on human β1-AR [2] is on record as 1.62 ± 0.11. For the same compound, at human β1-AR [3], the Schild slope is recorded as 1.04 ± 0.02, the Kd is 1.02 nM, the “SI1b (in vitro inhibition of functional response) = Kd,β2/Kd,β1” value turned out to be 1738 and the “β1 vs. β2 selectivity Kd,β2/Kd,β1” value is 1738. For the same compound, the “SI3 (in vivo pharmacologic response) = Eβ1/Eβ2” value in the series on β1-AR vs. β2-AR is recorded as 81. For the same compound, the “P450 in vitro clearance CLint, CYP3A4” value at CYP3A4 came to 0.17 μl/min/pmol P450. Further, the microsomal CLint in series [4] is < 0.16 µL/min/mg. For the same compound, the “Agonist response by directly measuring ERK1/2 MAPK” value on human β1-AR [5] is reported as “did not stimulate any agonist response”. Moreover, on human β1-AR [6], the Kd was 5.25 nM and the “SI1a (in vitro binding) = Kd,β2/Kd,β1” value was 1023. For the same compound, the “Affinity for the hERG channel” value on hERG potassium channel is on record as “no affinity for the hERG channel”. Also, the solubility in [7] (setting [8]) was > 100 µg/mL. In addition, the solubility in series [7] (setting [9]) was 50 to 100 µg/mL.
